One test addresses T1, Caspase-1 (Homo sapiens, UniProt P29466).
T1 sequence (P29466 120-297 limits assumed): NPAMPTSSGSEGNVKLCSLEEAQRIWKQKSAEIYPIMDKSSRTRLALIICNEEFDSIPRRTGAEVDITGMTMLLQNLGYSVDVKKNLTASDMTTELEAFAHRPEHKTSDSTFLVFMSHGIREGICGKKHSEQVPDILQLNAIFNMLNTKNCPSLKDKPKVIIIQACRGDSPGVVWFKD
T1 sequence (P29466 317-404 limits assumed): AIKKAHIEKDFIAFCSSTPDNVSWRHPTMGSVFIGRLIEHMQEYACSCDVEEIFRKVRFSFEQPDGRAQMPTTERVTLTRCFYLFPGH
The test is described as follows: Purified protease assay, fluorescence (Caspase-1). It is filed as biochemical. The source says:
(§1) . Product was quantified by fluorescence (n=2) (FIG. 19). Ac-YVAD-CHO and GM-6001 served as positive controls and were used at empirically determined IC50 concentrations.

A further test deals with primary human monocytes. The test is described as follows: IL-1β secretion and IL-1β species in LPS-induced primary human monocytes (ELISA, western blotting). In kind it is cell-based. Here is the method:
Culture supernatants were analyzed for cytokine levels by ELISA (FIG. 16). […] Cell lysates were also analyzed for levels of IL-1β species by western blotting (FIG. 20).
Cells were treated with 1 mM ATP for 10 minutes. Culture supernatants were analyzed for IL-1β by ELISA (FIG. 18).

In test [1] the target is TNFα converting enzyme (TACE) (Homo sapiens, UniProt P78536). Put plainly: Purified protease assay, fluorescence (TACE). It is filed as biochemical.
TNFα converting enzyme (TACE), sequence (P78536 215-824, species assumed): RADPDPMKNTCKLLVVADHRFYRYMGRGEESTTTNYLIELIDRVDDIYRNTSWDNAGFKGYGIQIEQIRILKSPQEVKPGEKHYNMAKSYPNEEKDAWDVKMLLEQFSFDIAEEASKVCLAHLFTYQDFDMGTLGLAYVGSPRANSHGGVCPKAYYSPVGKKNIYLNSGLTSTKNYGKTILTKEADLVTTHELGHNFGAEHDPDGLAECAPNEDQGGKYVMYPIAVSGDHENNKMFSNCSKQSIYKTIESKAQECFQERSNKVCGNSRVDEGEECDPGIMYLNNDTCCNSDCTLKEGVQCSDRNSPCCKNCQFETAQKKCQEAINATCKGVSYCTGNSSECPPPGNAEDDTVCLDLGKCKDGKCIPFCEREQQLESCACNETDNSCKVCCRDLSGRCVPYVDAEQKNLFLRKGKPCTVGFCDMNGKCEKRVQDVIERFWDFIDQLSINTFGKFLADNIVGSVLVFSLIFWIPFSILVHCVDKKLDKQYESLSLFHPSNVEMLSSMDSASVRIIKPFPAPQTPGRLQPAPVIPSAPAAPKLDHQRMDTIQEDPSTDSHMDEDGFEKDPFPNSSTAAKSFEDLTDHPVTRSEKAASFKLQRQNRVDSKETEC
Description: as §1

Test [2] relates to arachidonic acid-induced topical inflammatory model in BALE/c mice. The test is described as follows: Arachidonic acid-induced topical inflammatory model (ear swelling). In kind it is in vivo.
For test [3], the system named is oxazolone-induced topical inflammatory model in BALB/c mice. The test is described as follows: Oxazolone-induced topical inflammatory model (ear swelling). In kind it is in vivo. The procedure:
To this end, we utilized two mouse models of allergic contact dermatitis, which are schematically illustrated in FIG. 12. […] Afterwards, the difference in the thickness of each of the two ears was compared to measure the extent of swelling (ie. inflammation).
As a further test, vehicle or the indicated compounds were administered topically in 40 μl doses 30 minutes before and 15 minutes after a second challenge (25 μl/ear of 1% oxazolone in acetone) (n=6). Ear thickness was measured 24 hours after the second challenge with a Dyer model micrometer gauge.

Molecules are shown by their SMILES. Where “and” joins values, the source holds several entries; their conditions need not be identical. Equal values may be shown once.

As to `CC(=O)N[C@@H](Cc1ccc(O)cc1)C(=O)N[C@H](C(=O)N[C@@H](C)C(=O)N[C@H](C=O)CC(=O)O)C(C)C` [Ac-YVAD-CHO, reference compound], on Caspase-1 (positive control, read-out: empirically determined IC50 concentration, Caspase-1), the IC50 turned out to be 20 nM.
`COc1ccc(Cn2ccc3ccc(C(=O)NO)cc32)cc1` [Compound 23, 1-(4-methoxy-phenylmethyl)-1H-indole-6-carboxylic acid hydroxyamide]: the “pro-IL-1β levels in cell lysates, of control levels (densitometry)” value with primary human monocytes (2 μM lane) worked out at 153%. The “pro-IL-1β levels in cell lysates, of control levels (densitometry)” value with primary human monocytes (10 μM lane) was found to be 142%. For the same molecule, the “direct inhibition of TACE protease” value in test [1] (10 μM) is reported as “does not Directly Inhibit”. The “direct inhibition of Caspase-1 protease” value at Caspase-1 (10 μM) is “does not Directly Inhibit”. Further, the “arachidonic acid-induced inflammation (in words)” value in test [2] (1 mg) is “reduced arachidonic acid-induced inflammation”. Moreover, in test [2] (TOP, 1 mg/ear × 2), the “Ear thickness L. Ear, mean (X)” value worked out at 20.0 ×0.01 mm; the “Ear thickness Net, mean (X)” value is listed as 9.7 ×0.01 mm; the “Ear thickness R. Ear, mean (X)” value worked out at 29.7 ×0.01 mm. In addition, in test [2] (TOP, 1 mg/ear × 2, N 1-6), the “Ear thickness L. Ear, individual animals” value is 20 ×0.01 mm (4×) and 21 ×0.01 mm and 19 ×0.01 mm; the “Ear thickness Net, individual animals” value was 9 ×0.01 mm (3×) and 11 ×0.01 mm and 8 ×0.01 mm and 12 ×0.01 mm; the “Ear thickness R. Ear, individual animals” value is 29 ×0.01 mm (2×) and 32 ×0.01 mm (2×) and 28 ×0.01 mm (2×). In addition, in test [2] (TOP, 3 mg/ear × 2), the “Ear thickness L. Ear, mean (X)” value turned out to be 20.5 ×0.01 mm; the “Ear thickness Net, mean (X)” value turned out to be 10.3 ×0.01 mm; the “Ear thickness R. Ear, mean (X)” value is recorded as 30.8 ×0.01 mm. Besides, in test [2] (TOP, 3 mg/ear × 2, N 1-6), the “Ear thickness L. Ear, individual animals” value is 21 ×0.01 mm (4×) and 19 ×0.01 mm and 20 ×0.01 mm; the “Ear thickness Net, individual animals” value was 6 ×0.01 mm (2×) and 11 ×0.01 mm and 16 ×0.01 mm (2×) and 7 ×0.01 mm; the “Ear thickness R. Ear, individual animals” value is 27 ×0.01 mm (2×) and 32 ×0.01 mm and 35 ×0.01 mm and 36 ×0.01 mm and 28 ×0.01 mm. The “Ear Thickness Net” value in test [3] (1 mg/ear × 2, topical) was 12.5 ± 1.8 0.01 mm. The “Ear Thickness Net” value in test [3] (3 mg/ear × 2, topical) was 7.3 ± 0.3 0.01 mm.
Molecule `CNC(=O)[C@H](Cc1c[nH]c2ccccc12)NC(=O)[C@@H](CC(=O)NO)CC(C)C` [GM-6001, reference compound] registered an IC50 in test [1] of 60 nM.
Take `COc1ccc2c(c1)c(CC(=O)O)c(C)n2C(=O)c1ccc(Cl)cc1` [Indomethacin, reference compound]: in test [2] (TOP, 3 mg/ear × 2), the “% Inhibition” value is “(62) %”; the “Ear thickness L. Ear, mean (X)” value was determined as 20.2 ×0.01 mm; the “Ear thickness Net, mean (X)” value was determined as 5.5 ×0.01 mm; the “Ear thickness R. Ear, mean (X)” value is 25.7 ×0.01 mm. In addition, in test [2] (TOP, 3 mg/ear × 2, N 1-6), the “Ear thickness L. Ear, individual animals” value was 19 ×0.01 mm and 21 ×0.01 mm (2×) and 20 ×0.01 mm (3×); the “Ear thickness Net, individual animals” value is 7 ×0.01 mm and 4 ×0.01 mm and 6 ×0.01 mm (2×) and 5 ×0.01 mm (2×); the “Ear thickness R. Ear, individual animals” value is 26 ×0.01 mm (4×) and 25 ×0.01 mm (2×). In addition, the “Ear Thickness Net” value in test [3] (0.3 mg/ear × 2, topical) is listed as 9.7 ± 1.0 0.01 mm. Further, the “% Inhibition” value in test [3] (0.3 mg/ear × 2, topical, relative to vehicle-treated control, ≧30% considered significant) was “(40) %”.

Source of the values: patent US20110150825A1, “USES OF SELECTIVE INHIBITORS OF HDAC8 FOR TREATMENT OF INFLAMMATORY CONDITIONS” (PHARMACYCLICS, INC., priority 2006, published 2011).
